We go through one compound from patent US20210063374A1, “ABNORMAL CARDIAC RHYTHM MYOCARDIAL MODEL AND METHOD FOR PRODUCING SAME, AGENT FOR FORMING ABNORMAL CARDIAC RHYTHM MYOCARDIAL MODEL, AND METHOD FOR EVALUATING DRUG EFFICACY OF HEART DISEASE THERAPEUTIC” (TOPPAN PRINTING CO., LTD., priority 2017, published 2021).

The assay relates to myocardial models composed of three-dimensional tissues (iPS-CM 75%/NHCF 25%). Kind of assay: Evaluation of drug response to isoproterenol (change rate of the number of beats of myocardial model). The assay is classed as cell-based, human. Conditions: 100 nM isoproterenol, 30, 60, 80 min incubation, FIG. 12. As to the method:
5 mL of 10× phosphate buffered saline (PBS) was added to 50 mg of a pig skin-derived type I collagen (provided by NH Foods Ltd.), and was subjected to homogenization by using a homogenizer for 6 min. Subsequently, centrifugation was performed at 10000 rpm for 3 min to remove the supernatant. 5 mL of serum-free DMEM was added thereto, followed by washing by pipetting for 1 min. After the washing, centrifugation was performed at 10000 rpm for 3 min to remove the supernatant. 5 mL of serum-containing DMEM was added thereto to prepare a culture medium (CMF concentration: 9.8 mg/mL) having fragmented collagens (CMF) dispersed therein. Dispersions were weighed from the culture medium having CMF dispersed therein such that the amounts of CMFs were 0, 1, 2, and 3 mg, were mixed with 5×10^5 cells of iPS-CM 75%/NHCF 25%, and were seeded in a 96-well round-bottomed non-adherent plate (the amount of the culture medium: 300 μL). Subsequently, centrifugation was performed at 1100 g for 5 min to precipitate the CMFs and the cells. After the centrifugation, culturing was performed in a culture-ware at 37° C. The culture medium was replaced every 2 days by removing the old culture medium and adding 300 μL of new culture medium.
A three-dimensional tissue was constructed in the same manner as above. […] The content of the collagen in the three-dimensional tissue was measured using the kit above according to the standard protocol of the kit.
The cardiac rhythms of the tissues after culturing for 5 to 6 days were taken using a SONY Motion analyzer to measure the number of beats. […] From the results of measurement, the change rate of the number of beats (change rate of beating) by adding isoproterenol was calculated from the following equation. […]
The change rate of the number of beats caused by addition of isoproterenol is determined by the equation above, and this value is corrected by the equation below, i.e., by dividing this value by the change rate of the number of beats when the drug is not added (=a change in the number of beats caused by replacement of the culture medium).

“Also recorded” adds a separate entry of the source.

Consider `CC(C)NCC(O)c1ccc(O)c(O)c1` (stereo not drawn) [isoproterenol], for which the “drug response (change rate of the number of beats)” value is, setting by setting: (myocardial model with 0 mg CMFs) “poor”; (myocardial model with 1 mg CMFs) “exhibited; also recorded: more favorable drug response”; (myocardial model with 3 mg CMFs) “exhibited”.
